# Active and inactive are the calls of the source. The calls are words filed in the database; no cut-off is given here.
# Key:
# [1] = Antiproliferative activity against human HT1080 cells assessed as growth inhibition incubated for 48 hrs by sulforhodamine B assay; type: functional, cell-based, HT-1080; conditions: Homo sapiens, HT-1080, 48 h; read-out: IC50
# [2] = system: M21; test: Antiproliferative activity against human M21 cells assessed as growth inhibition incubated for 48 hrs by sulforhodamine B assay; type: functional, cell-based; conditions: M21, 48 h
# [3] = system: HT-29; test: Antiproliferative activity against human HT-29 cells assessed as growth inhibition incubated for 48 hrs by sulforhodamine B assay; type: functional, cell-based; conditions: HT-29, 48 h
# [4] = system: MCF7; test: Antiproliferative activity against human MCF7 cells assessed as growth inhibition incubated for 48 hrs by sulforhodamine B assay; type: functional, cell-based; conditions: MCF7, 48 h
# [5] = system: M21; test: Cell cycle arrest in human M21 cells assessed as accumulation at G0/G1 phase at 5.9 uM after 24 hrs by DAPI staining-based flow cytometry (reference value: 65.1%); type: functional
# [6] = system: M21; test: Cell cycle arrest in human M21 cells assessed as accumulation at S phase at 5.9 uM after 24 hrs by DAPI staining-based flow cytometry (reference value: 17.4%); type: functional
# [7] = system: M21; test: Cell cycle arrest in human M21 cells assessed as accumulation at G2/M phase at 5.9 uM after 24 hrs by DAPI staining-based flow cytometry (reference value: 16%); type: functional
# [8] = system: M21; test: Cell cycle arrest in human M21 cells assessed as accumulation at subG1 phase at 5.9 uM after 24 hrs by DAPI staining-based flow cytometry (reference value: 1.5%); type: functional
# [9] = system: M21; test: Induction DNA DSBs in human M21 cells assessed as increase in gamma H2AX foci at 15 uM incubated for 24 hrs by DAPI staining based immunocytochemistry; type: cell-based
# [10] = system: M21; test: Cell cycle arrest in human M21 cells assessed as accumulation at G0/G1 phase at 5.4 uM after 24 hrs by DAPI staining-based flow cytometry (reference value: 65.1%); type: functional
# [11] = system: M21; test: Cell cycle arrest in human M21 cells assessed as accumulation at S phase at 5.4 uM after 24 hrs by DAPI staining-based flow cytometry (reference value: 17.4%); type: functional
# [12] = system: M21; test: Cell cycle arrest in human M21 cells assessed as accumulation at G2/M phase at 5.4 uM after 24 hrs by DAPI staining-based flow cytometry (reference value: 16%); type: functional
# [13] = system: M21; test: Cell cycle arrest in human M21 cells assessed as accumulation at subG1 phase at 5.4 uM after 24 hrs by DAPI staining-based flow cytometry (reference value: 1.5%); type: functional
# [14] = system: M21; test: Induction DNA DSBs in human M21 cells assessed as increase in gamma H2AX foci at 5.4 uM incubated for 24 hrs by DAPI staining based immunocytochemistry; type: cell-based
# [15] = system: M21; test: Cell cycle arrest in human M21 cells assessed as accumulation at G0/G1 phase at 1.5 uM after 24 hrs by DAPI staining-based flow cytometry (reference value: 65.1%); type: functional
# [16] = system: M21; test: Cell cycle arrest in human M21 cells assessed as accumulation at S phase at 1.5 uM after 24 hrs by DAPI staining-based flow cytometry (reference value: 17.4%); type: functional
# [17] = system: M21; test: Cell cycle arrest in human M21 cells assessed as accumulation at G2/M phase at 1.5 uM after 24 hrs by DAPI staining-based flow cytometry (reference value: 16%); type: functional
# [18] = system: M21; test: Cell cycle arrest in human M21 cells assessed as accumulation at subG1 phase at 1.5 uM after 24 hrs by DAPI staining-based flow cytometry (reference value: 1.5%); type: functional
# [19] = system: M21; test: Induction DNA DSBs in human M21 cells assessed as increase in gamma H2AX foci at 0.75 uM incubated for 24 hrs by DAPI staining based immunocytochemistry; type: cell-based
# [20] = system: M21; test: Cell cycle arrest in human M21 cells assessed as accumulation at G0/G1 phase at 3.3 uM after 24 hrs by DAPI staining-based flow cytometry (reference value: 65.1%); type: functional
# [21] = system: M21; test: Cell cycle arrest in human M21 cells assessed as accumulation at S phase at 3.3 uM after 24 hrs by DAPI staining-based flow cytometry (reference value: 17.4%); type: functional
# [22] = system: M21; test: Cell cycle arrest in human M21 cells assessed as accumulation at G2/M phase at 3.3 uM after 24 hrs by DAPI staining-based flow cytometry (reference value: 16%); type: functional
# [23] = system: M21; test: Cell cycle arrest in human M21 cells assessed as accumulation at subG1 phase at 3.3 uM after 24 hrs by DAPI staining-based flow cytometry (reference value: 1.5%); type: functional
# [24] = system: M21; test: Induction DNA DSBs in human M21 cells assessed as increase in gamma H2AX foci at 3.3 uM incubated for 24 hrs by DAPI staining based immunocytochemistry; type: functional, cell-based
# [25] = system: M21; test: Cell cycle arrest in human M21 cells assessed as accumulation at G0/G1 phase at 3.9 uM after 24 hrs by DAPI staining-based flow cytometry (reference value: 65.1%); type: functional
# [26] = system: M21; test: Cell cycle arrest in human M21 cells assessed as accumulation at S phase at 3.9 uM after 24 hrs by DAPI staining-based flow cytometry (reference value: 17.4%); type: functional
# [27] = system: M21; test: Cell cycle arrest in human M21 cells assessed as accumulation at G2/M phase at 3.9 uM after 24 hrs by DAPI staining-based flow cytometry (reference value: 16%); type: functional
# [28] = system: M21; test: Cell cycle arrest in human M21 cells assessed as accumulation at subG1 phase at 3.9 uM after 24 hrs by DAPI staining-based flow cytometry (reference value: 1.5%); type: functional
# [29] = system: M21; test: Induction DNA DSBs in human M21 cells assessed as increase in gamma H2AX foci at 3.9 uM incubated for 24 hrs by DAPI staining based immunocytochemistry; type: cell-based
# [30] = system: M21; test: Cell cycle arrest in human M21 cells assessed as accumulation at subG1 phase at 6.5 uM after 24 hrs by DAPI staining-based flow cytometry (reference value: 1.5%); type: functional
# [31] = system: M21; test: Cell cycle arrest in human M21 cells assessed as accumulation at G0/G1 phase at 6.5 uM after 24 hrs by DAPI staining-based flow cytometry (reference value: 65.1%); type: functional
# [32] = system: M21; test: Cell cycle arrest in human M21 cells assessed as accumulation at S phase at 6.5 uM after 24 hrs by DAPI staining-based flow cytometry (reference value: 17.4%); type: functional
# [33] = system: M21; test: Cell cycle arrest in human M21 cells assessed as accumulation at G2/M phase at 6.5 uM after 24 hrs by DAPI staining-based flow cytometry (reference value: 16%); type: functional
smiles,measurement,setting,value
O=C(NCCCl)Nc1ccc(S(=O)(=O)Oc2ccccc2[N+](=O)[O-])cc1,IC50,[1],2400 nM
same,IC50,[2],3900 nM
same,IC50,[3],5700 nM
same,IC50,[4],7400 nM
same,Activity,[5],32.5%
same,Activity,[6],43%
same,Activity,[7],23.1%
same,Activity,[8],1.4%
same,Activity,[9],Active
Cc1ccccc1OS(=O)(=O)c1ccc(NC(=O)NCCCl)cc1,IC50,[1],1600 nM
same,IC50,[2],4500 nM
same,IC50,[3],4900 nM
same,IC50,[4],6100 nM
same,Activity,[10],39.2%
same,Activity,[11],39%
same,Activity,[12],19.5%
same,Activity,[13],2.3%
same,Activity,[14],Active
CC[C@@]1(O)C(=O)OCc2c1cc1n(c2=O)Cc2cc3c(CN(C)C)c(O)ccc3nc2-1 [TOPOTECAN],IC50,[1],180 nM
same,IC50,[2],1400 nM
same,IC50,[3],230 nM
same,IC50,[4],24 nM
same,Activity,[15],6.4%
same,Activity,[16],31.8%
same,Activity,[17],60.4%
same,Activity,[18],1.4%
same,Activity,[19],Active
Cc1cc(C)c(OS(=O)(=O)c2ccc(NC(=O)NCCCl)cc2)cc1C,IC50,[1],1000 nM
same,IC50,[2],1700 nM
same,IC50,[3],2300 nM
same,IC50,[4],3000 nM
same,Activity,[20],27.5%
same,Activity,[21],43.8%
same,Activity,[22],27%
same,Activity,[23],1.7%
same,Activity,[24],Active
Cc1cccc(C)c1OS(=O)(=O)c1ccc(NC(=O)NCCCl)cc1,IC50,[1],1100 nM
same,IC50,[2],2000 nM
same,IC50,[3],2800 nM
same,IC50,[4],3700 nM
same,Activity,[25],31%
same,Activity,[26],47.1%
same,Activity,[27],20.3%
same,Activity,[28],1.6%
same,Activity,[29],Active
O=C(NCCCl)Nc1ccc(S(=O)(=O)Oc2c(Cl)cc(Cl)cc2Cl)cc1,IC50,[1],1500 nM
same,IC50,[2],1300 nM
same,IC50,[3],1500 nM
same,IC50,[4],1700 nM
same,Activity,[30],8.5%
same,Activity,[31],11.6%
same,Activity,[32],7.3%
same,Activity,[33],72.6%

# Reference: ChEMBL document CHEMBL3632622, “Synthesis and biological evaluation of novel N-phenyl ureidobenzenesulfonate derivatives as potential anticancer agents. Part 2. Modulation of the ring B” (Eur J Med Chem, 2015)
